According to ChEMBL document CHEMBL1201862, “PubChem BioAssay data set” (2004):
The source made the active and inactive calls. For most assays here, no stated cut-off is given here; in the data, active = EC50 of 10 µM or less and inactive = more.

What was measured:
Insulin-degrading enzyme [1] = target: T1, Insulin-degrading enzyme (Homo sapiens, UniProt P14735); assay: recombinant IDE activation, cell-free – biochemical, fluorescence polarization, counter-screen for IDE activator project, dose response (AID 588681)
T1 sequence (P14735 whole entry): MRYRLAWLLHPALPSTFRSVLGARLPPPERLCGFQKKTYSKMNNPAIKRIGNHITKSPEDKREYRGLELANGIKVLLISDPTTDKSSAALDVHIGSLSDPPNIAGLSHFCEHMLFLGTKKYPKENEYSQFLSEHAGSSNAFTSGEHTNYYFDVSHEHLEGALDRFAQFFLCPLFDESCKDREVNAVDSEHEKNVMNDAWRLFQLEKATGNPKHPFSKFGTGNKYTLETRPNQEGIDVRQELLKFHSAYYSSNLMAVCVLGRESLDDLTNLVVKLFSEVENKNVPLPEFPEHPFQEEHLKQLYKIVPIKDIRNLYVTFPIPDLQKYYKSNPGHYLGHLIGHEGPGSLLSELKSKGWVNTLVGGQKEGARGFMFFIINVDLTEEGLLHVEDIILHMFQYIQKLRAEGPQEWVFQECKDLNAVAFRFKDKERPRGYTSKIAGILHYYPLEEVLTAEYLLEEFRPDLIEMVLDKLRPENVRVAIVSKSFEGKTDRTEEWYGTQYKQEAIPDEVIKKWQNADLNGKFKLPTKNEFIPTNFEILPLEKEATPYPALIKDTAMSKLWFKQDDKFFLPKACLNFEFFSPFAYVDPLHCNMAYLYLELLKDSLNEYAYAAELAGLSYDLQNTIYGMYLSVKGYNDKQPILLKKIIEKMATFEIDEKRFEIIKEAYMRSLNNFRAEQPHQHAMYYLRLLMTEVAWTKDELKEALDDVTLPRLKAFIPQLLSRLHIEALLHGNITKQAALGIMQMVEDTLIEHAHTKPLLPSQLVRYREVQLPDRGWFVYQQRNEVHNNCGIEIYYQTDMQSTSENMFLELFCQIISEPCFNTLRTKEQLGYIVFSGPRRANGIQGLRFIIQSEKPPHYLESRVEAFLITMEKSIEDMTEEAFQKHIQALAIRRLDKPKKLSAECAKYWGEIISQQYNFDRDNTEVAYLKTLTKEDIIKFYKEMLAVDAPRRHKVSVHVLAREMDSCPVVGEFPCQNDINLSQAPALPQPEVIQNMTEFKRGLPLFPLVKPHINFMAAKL

Insulin-degrading enzyme [2] = target: T1, Insulin-degrading enzyme; assay: cellular IDE activation of Abeta substrate cleavage – fluorescence polarization, HEK cells, dose response (AID 588439); format: functional, cell-based
HEK293 [3] = assay: optical interference in Abeta FP readout, dose response, artefact control for IDE activator project, biochemical, fluorescence polarization (AID 588442); format: functional, cell-based; conditions: Homo sapiens
HEK293 [4] = assay: membrane integrity loss in HEK cells – cell-based, fluorescence, cytotoxicity control for IDE activator project, dose response (AID 588440); format: functional; conditions: Homo sapiens;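 further: cytotoxicity by LDH release measuring loss of membrane integrity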

COc1cc(CNC2CCCC2)cc(OC)c1OC
inactive: EC50 (Insulin-degrading enzyme [1]) > 54.7 µM | EC50 (Insulin-degrading enzyme [2]) > 54.7 µM | EC50 (HEK293 [3]) > 54.7 µM | IC50 (HEK293 [4]) > 89.1 µM
